# According to patent publication US10745361B2, “Piperazine derivatives having multimodal activity against pain” (ESTEVE PHARMACEUTICALS, S.A., priority 2013, dated 2020):
# Tested on: human σ1 receptor and human μ-opioid receptor
# Experiment: Human σ1 receptor radioligand assay and human μ-opioid receptor radioligand assay (μ and σ1 dual binding)
# Design: key to μ and σ1 dual binding: +: Both Ki-μ and Ki-σ1>=500 nM; ++: One K, <500 nM while the other K, is >=500 nM; +++: Both Ki-μ and Ki-σ1<500 nM; ++++: Both Ki-μ and Ki-σ1<100 nM
# Settings: one class for both Ki: σ1 ([3H](+)-pentazocine, transfected HEK-293 membranes) and μ-opioid ([3H]-DAMGO, transfected CHO-K1 membranes)
# Description: Human σ1 Receptor Radioligand Assay
# To investigate binding properties of σ1 receptor ligands to human σ1 receptor, transfected HEK-293 membranes and [^3H](+)-pentazocine (Perkin Elmer, NET-1056), as the radioligand, were used. The assay was carried out with 7 μg of membrane suspension, 5 nM of [^3H](+)-pentazocine in either absence or presence of either buffer or 10 μM Haloperidol for total and non-specific binding, respectively. Binding buffer contained Tris-HCl 50 mM at pH 8. Plates were incubated at 37° C. for 120 minutes. After the incubation period, the reaction mix was then transferred to MultiScreen HTS, FC plates (Millipore), filtered and plates were washed 3 times with ice-cold 10 mM Tris-HCL (pH7.4). Filters were dried and counted at approximately 40% efficiency in a MicroBeta scintillation counter (Perkin-Elmer) using EcoScint liquid scintillation cocktail
# Human μ-Opioid Receptor Radioligand Assay
# To investigate binding properties of p-opioid receptor ligands to human p-opioid receptor, transfected CHO-K1 cell membranes and [^3H]-DAMGO (Perkin Elmer, ES-542-C), as the radioligand, were used. The assay was carried out with 20 μg of membrane suspension, 1 nM of [^3H]-DAMGO in either absence or presence of either buffer or 10 μM Naloxone for total and non-specific binding, respectively. Binding buffer contained Tris-HCl 50 mM, MgCl2 5 mM at pH 7.4. Plates were incubated at 27° C. for 60 minutes. After the incubation period, the reaction mix was then transferred to MultiScreen HTS, FC plates (Millipore), filtered and plates were washed 3 times with ice-cold 10 mM Tris-HCL (pH 7.4). Filters were dried and counted at approximately 40% efficiency in a MicroBeta scintillation counter (Perkin-Elmer) using
# EcoScint liquid scintillation cocktail.
# The following scale as been adopted for representing the binding to the σ1 receptor and the μ-opiod receptor expressed as Ki: • + Both Ki-μ and Ki-σ1>=500 nM • ++ One K, <500 nM while the other K, is >=500 nM • +++ Both Ki-μ and Ki-σ1<500 nM • ++++ Both Ki-μ and Ki-σ1<100 nM
SMILES,μ and σ1 dual binding,Ki [nM]
"CC(C)S(=O)(=O)Nc1cccc(N2CCN(Cc3cn(-c4ccc(F)cn4)nn3)CC2)c1 [Example 19, N-(3-(4-((1-(5-fluoropyridin-2-yl)-1H-1,2,3-triazol-4-yl)methyl)piperazin-1-yl)phenyl)propane-2-sulfonamide]",++,
"CS(=O)(=O)Nc1cccc(N2CCN(Cc3cn(-c4ccccc4)nn3)CC2)n1 [Example 41, N-(6-(4-((1-phenyl-1H-1,2,3-triazol-4-yl)methyl)piperazin-1-yl)pyridin-2-yl)methanesulfonamide]",++,
"CC(C)S(=O)(=O)Nc1cccc(N2CCN(Cc3cnn(-c4ccccc4)c3)CC2)c1 [Example 36, N-(3-(4-((1-phenyl-1H-pyrazol-4-yl)methyl)piperazin-1-yl)phenyl)propane-2-sulfonamide]",,< 100
"CC(C)S(=O)(=O)Nc1cccc(N2CCN(Cc3cn(-c4cccc(F)n4)nn3)CC2)c1 [Example 29, N-(3-(4-((1-(6-fluoropyridin-2-yl)-1H-1,2,3-triazol-4-yl)methyl)piperazin-1-yl)phenyl)propane-2-sulfonamide]",,< 500
"Oc1cccc(N2CCN(Cc3cn(-c4ccccc4)nn3)CC2)c1 [Example 5, 3-(4-((1-phenyl-1H-1,2,3-triazol-4-yl)methyl)piperazin-1-yl)phenol]",++,
"CC(C)S(=O)(=O)Nc1cccc(N(C)C2CCN(Cc3cn(-c4ccccc4)nn3)C2)c1 (stereo not drawn) [Example 26, N-(3-(methyl(1-((1-phenyl-1H-1,2,3-triazol-4-yl)methyl)pyrrolidin-3-yl)amino)phenyl)propane-2-sulfonamide]",,< 100
"CC(C)S(=O)(=O)Nc1cccc(N2CCN(Cc3cn(-c4ncccc4F)nn3)CC2)c1 [Example 21, N-(3-(4-((1-(3-fluoropyridin-2-yl)-1H-1,2,3-triazol-4-yl)methyl)piperazin-1-yl)phenyl)propane-2-sulfonamide]",++,
"CCC(=O)Nc1cccc(N2CCN(Cc3cn(-c4ccccc4F)nn3)CC2)n1 [Example 45, N-(6-(4-((1-(2-fluorophenyl)-1H-1,2,3-triazol-4-yl)methyl)piperazin-1-yl)pyridin-2-yl)propionamide]",++,
"CC(C)S(=O)(=O)Nc1ccc(Cl)c(N2CCN(Cc3cn(-c4ccccc4)nn3)CC2)n1 [Example 52, N-(5-chloro-6-(4-((1-phenyl-1H-1,2,3-triazol-4-yl)methyl)piperazin-1-yl)pyridin-2-yl)propane-2-sulfonamide]",,< 500
"Oc1cccc(N2CCN(Cc3cnn(-c4ccccc4)c3)CC2)c1 [Example 37, 3-(4-((1-phenyl-1H-pyrazol-4-yl)methyl)piperazin-1-yl)phenol]",,< 100
"CC(C)S(=O)(=O)Nc1cccc(N2CC3CN(Cc4cn(Cc5ccccn5)nn4)CC3C2)n1 (stereo not drawn) [Example 55, N-(6-(5-((1-(pyridin-2-ylmethyl)-1H-1,2,3-triazol-4-yl)methyl)hexahydropyrrolo[3,4-c]pyrrol-2(1H)-yl)pyridin-2-yl)propane-2-sulfonamide]",++,
"CC(C)S(=O)(=O)Nc1cccc(N2CCN(Cc3cn(-c4ccccc4F)nn3)CC2)n1 [Example 43, N-(6-(4-((1-(2-fluorophenyl)-1H-1,2,3-triazol-4-yl)methyl)piperazin-1-yl)pyridin-2-yl)propane-2-sulfonamide]",++,
"O=S(=O)(Nc1cccc(N2CCN(Cc3cn(-c4ncccc4F)nn3)CC2)n1)C1CC1 [Example 64, N-(6-(4-((1-(3-fluoropyridin-2-yl)-1H-1,2,3-triazol-4-yl)methyl)piperazin-1-yl)pyridin-2-yl)cyclopropanesulfonamide]",++,
"Nc1cccc(N2CCN(Cc3cn(-c4ccccc4F)nn3)CC2)n1 [Example 72, 6-(4-((1-(2-fluorophenyl)-1H-1,2,3-triazol-4-yl)methyl)piperazin-1-yl)pyridin-2-amine]",++,
"O=S(=O)(Nc1cccc(N2CCN(Cc3cn(-c4ccc(C(F)(F)F)cn4)nn3)CC2)n1)C1CC1 [Example 67, N-(6-(4-((1-(5-(trifluoromethyl)pyridin-2-yl)-1H-1,2,3-triazol-4-yl)methyl)piperazin-1-yl)pyridin-2-yl)cyclopropanesulfonamide]",++,
"Oc1cccc(N2CCN(Cc3cn(Cc4ccccc4)nn3)CC2)c1 [Example 6, 3-(4-((1-benzyl-1H-1,2,3-triazol-4-yl)methyl)piperazin-1-yl)phenol]",++,
"CC(C)S(=O)(=O)Nc1cccc(N2CCCN(Cc3cn(-c4ccccc4)nn3)CC2)n1 [Example 57, N-(6-(4-((1-phenyl-1H-1,2,3-triazol-4-yl)methyl)-1,4-diazepan-1-yl)pyridin-2-yl)propane-2-sulfonamide]",,< 100
"CC(C)S(=O)(=O)Nc1cccc(N2CCCN(Cc3cn(Cc4ccccn4)nn3)CC2)n1 [Example 59, N-(6-(4-((1-(pyridin-2-ylmethyl)-1H-1,2,3-triazol-4-yl)methyl)-1,4-diazepan-1-yl)pyridin-2-yl)propane-2-sulfonamide]",++,
"CC(C)S(=O)(=O)Nc1cccc(N2CCN(Cc3cn(-c4ccccc4F)nn3)CC2)c1 [Example 9, N-(3-(4-((1-(2-fluorophenyl)-1H-1,2,3-triazol-4-yl)methyl)piperazin-1-yl)phenyl)propane-2-sulfonamide]",,< 100
"COc1cncc(-n2cc(CN3CCN(c4cccc(NS(=O)(=O)C(C)C)n4)CC3)nn2)c1 [Example 56, N-(6-(4-((1-(5-methoxypyridin-3-yl)-1H-1,2,3-triazol-4-yl)methyl)piperazin-1-yl)pyridin-2-yl)propane-2-sulfonamide]",++,
"CC(C)S(=O)(=O)Nc1cccc(N2CCN(Cc3cn(-c4c(F)cccc4F)nn3)CC2)n1 [Example 48, N-(6-(4-((1-(2,6-difluorophenyl)-1H-1,2,3-triazol-4-yl)methyl)piperazin-1-yl)pyridin-2-yl)propane-2-sulfonamide]",++,
"CS(=O)(=O)Nc1cccc(N2CCN(Cc3cnn(Cc4ccccc4)c3)CC2)c1 [Example 34, N-(3-(4-((1-benzyl-1H-pyrazol-4-yl)methyl)piperazin-1-yl)phenyl)methanesulfonamide]",,< 500
"CS(=O)(=O)Nc1cccc(N2CC3CN(Cc4cn(-c5ccccc5)nn4)CC3C2)c1 (stereo not drawn) [Example 13, N-(3-(5-((1-phenyl-1H-1,2,3-triazol-4-yl)methyl)hexahydropyrrolo[3,4-c]pyrrol-2(1H)-yl)phenyl)methanesulfonamide]",,< 500
"O=S(=O)(Nc1cccc(N2CCN(Cc3cn(-c4ccccc4)cn3)CC2)n1)C1CC1 [Example 70, N-(6-(4-((1-phenyl-1H-imidazol-4-yl)methyl)piperazin-1-yl)pyridin-2-yl)cyclopropanesulfonamide]",,< 500
"Nc1cccc(N2CCN(Cc3cn(-c4ccccc4)nn3)CC2)n1 [Example 63, 6-(4-((1-phenyl-1H-1,2,3-triazol-4-yl)methyl)piperazin-1-yl)pyridin-2-amine]",,≥ 500
"O=S(=O)(Nc1cccc(N2CCN(Cc3cn(-c4ccccc4)nn3)CC2)c1)C(F)(F)F [Example 18, 1,1,1-trifluoro-N-(3-(4-((1-phenyl-1H-1,2,3-triazol-4-yl)methyl)piperazin-1-yl)phenyl)methanesulfonamide]",,≥ 500
"CC(C)S(=O)(=O)Nc1cccc(N2CCN(Cc3cn(-c4ccc(F)c(F)c4)nn3)CC2)n1 [Example 49, N-(6-(4-((1-(3,4-difluorophenyl)-1H-1,2,3-triazol-4-yl)methyl)piperazin-1-yl)pyridin-2-yl)propane-2-sulfonamide]",++,
"CC(C)S(=O)(=O)Nc1cccc(N2CCCN(Cc3cn(-c4ccccc4F)nn3)CC2)n1 [Example 60, N-(6-(4-((1-(2-fluorophenyl)-1H-1,2,3-triazol-4-yl)methyl)-1,4-diazepan-1-yl)pyridin-2-yl)propane-2-sulfonamide]",,< 500
"CS(=O)(=O)Nc1cccc(N2CCN(Cc3cn(-c4ccc(C(F)(F)F)nc4)nn3)CC2)c1 [Example 8, N-(3-(4-((1-(6-(trifluoromethyl)pyridin-3-yl)-1H-1,2,3-triazol-4-yl)methyl)piperazin-1-yl)phenyl)methanesulfonamide]",,≥ 500
"CC(C)S(=O)(=O)Nc1cccc(N2CC3CN(Cc4cn(-c5ccccc5F)nn4)CC3C2)n1 (stereo not drawn) [Example 61, N-(6-(5-((1-(2-fluorophenyl)-1H-1,2,3-triazol-4-yl)methyl)hexahydropyrrolo[3,4-c]pyrrol-2(1H)-yl)pyridin-2-yl)propane-2-sulfonamide]",++,
